Structures are written as SMILES.

In general, IC50 refers to the concentration that gives 50% inhibition.

This assay deals with kappa opioid receptor (OPRK1) (Homo sapiens (Human), UniProt P41145). Description: OPRK1 antagonist assay (b-arrestin-2-TEV / b-lactamase reporter cell line, EC80 U-50488 challenge). The format is cell-based. The settings on record: read-out: IC50 nM (% inhib if other than 50%); antagonist mode vs EC80 U-50488; NA = not active at concentrations up to 10 μM.
kappa opioid receptor (OPRK1), sequence (P41145 whole entry): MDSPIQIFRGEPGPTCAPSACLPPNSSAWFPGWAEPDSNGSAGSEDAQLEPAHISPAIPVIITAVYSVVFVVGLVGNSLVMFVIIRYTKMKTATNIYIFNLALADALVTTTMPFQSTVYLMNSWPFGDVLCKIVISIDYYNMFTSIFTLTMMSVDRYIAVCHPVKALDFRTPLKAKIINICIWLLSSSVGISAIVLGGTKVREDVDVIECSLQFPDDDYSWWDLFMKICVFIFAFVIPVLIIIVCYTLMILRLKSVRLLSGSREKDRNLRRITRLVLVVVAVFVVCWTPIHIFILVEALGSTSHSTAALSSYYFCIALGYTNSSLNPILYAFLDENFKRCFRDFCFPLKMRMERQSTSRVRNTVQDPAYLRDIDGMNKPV
Take `Cc1ccc2nc(N3CCC(N(C)C4CCOCC4)CC3)c(-c3nc(C)no3)cc2c1` [compound 267]: the half-inhibitory concentration (IC50) was 180 nM. The result for `COC1CN(c2nc(C)c(C)nc2-c2nc(C)no2)CCC1NC1CCCCC1` (stereo not shown) [compound 390] reads 1920 nM; that for `Cc1noc(-c2cc3ccccc3nc2N2CCC(NC3CCCCC3C)C(CO)C2)n1` (stereo not shown) [compound 206], 33 nM; that for `COC(=O)c1cc(Br)cnc1N1CCC(NC2CCCCC2)C(C)C1` (stereo not shown) [compound 45], 164 nM. The result for `COC(=O)c1cc([N+](=O)[O-])cnc1N1CCC(NC2CCCCC2)C(O)C1` (stereo not shown) [compound 98] reads 1100 nM; that for `COC(=O)c1cc2ccccc2nc1N1CCC(NC2CCCCC2)C(CO)C1` (stereo not shown) [compound 157], 37 nM; that for `COC1CN(c2nc3ccc(C)cc3cc2-c2nc(C)no2)CCC1NC1CCCC1` (stereo not shown) [compound 309], 0.5 nM. Then `Cc1noc(-c2cc3cccc(C)c3nc2N2CCC(NC3CCCCC3)C(CO)C2)n1` (stereo not shown) [compound 277], with 9 nM; and `COC1CN(c2ncc(Br)cc2C(C)=O)CCC1NC1CCCCC1` (stereo not shown) [C61], with 10000 nM; and `COC(=O)c1cc(Br)cnc1N1CCC(N[C@@H]2CCCC[C@H]2O)CC1` [compound 1], with 231 nM. As to `Cc1noc(-c2cnc(N3CC[C@@H](NC4CCCCC4)[C@H](O)C3)c(C)c2)n1` [compound 177], the half-maximal inhibitory concentration (IC50) is greater than 20 nM. `Cc1ccc2nc(N3CCC(NC4CCCC[C@@H]4O)CC3)c(-c3noc(C)n3)cc2c1` (stereo partly shown) [compound 437]: the IC50 was determined as 17 nM.

On to `COC(=O)c1cc(Br)cnc1N1CCC(NC(=O)C2CCCCC2)CC1` [C58], for which the half-inhibitory concentration (IC50) is greater than 20000 nM. The result for `CO[C@H]1CN(c2nc3ccc(C)cc3cc2-c2nc(C)no2)CC[C@H]1NCC(C)C` [compound 529] reads 369 nM; that for `COC1CN(c2nc3ccc(C)cc3cc2-c2nc(C)no2)CCC1NCC(C)C` (stereo not shown) [compound 375], 12 nM; that for `Cc1noc(-c2cc3ccccc3nc2N2CCC(NC3CCOCC3)CC2)n1` [compound 232], 8 nM. Then `Cc1cnc(N2CCC(NC3CCCC3)C(CO)C2)c(-c2nc(C)no2)c1` (stereo not shown) [compound 201], with 116 nM; and `COC(=O)c1cc(Br)cnc1N1CCC(NC(=O)C2CCCCC2)C(O)C1` (stereo not shown) [C54], with greater than 20000 nM; and `Cc1noc(-c2cc3c(nc2N2CCC(NC4CCCCC4)C(CO)C2)CCC3)n1` (stereo not shown) [compound 211], with 74 nM. Then `Cc1nc(-c2cc3cc(C)c(F)cc3nc2N2CCC(N[C@H]3CCCC[C@@H]3O)CC2)no1` [compound 506], with 48 nM. With `Cc1noc(-c2cc3ccc(F)c(C)c3nc2N2CCC(NCC(C)C)CC2)n1` [compound 494], the half-maximal inhibitory concentration (IC50) stood at 64 nM. Then `Cc1ccc2nc(N3CCC(NC4CCCCC4)CC3)c(-c3ccncn3)cc2c1` [compound 532], with 334 nM; and `COC(=O)c1cc(Br)cnc1N1CCC(NC2CCC[C@H]2O)CC1` (stereo partly shown) [compound 12], with 765 nM; and `CCC1(CO)CN(c2ncc(C)cc2-c2nc(C)no2)CCC1NC1CCCCC1` (stereo not shown) [compound 182], with 76 nM. Then `COC1CN(c2ncc(C)cc2-c2nc(C)no2)CCC1NC1CCCCCC1` (stereo not shown) [compound 318], with 19 nM; and `COC(=O)c1cc(I)cnc1N1CCC(NC2CCCCC2)CC1` [compound 36], with 79 nM.

Consider `COC1CN(c2ncc(C)cc2-c2nccc(C)n2)CCC1NC1CCCCC1` (stereo not shown) [compound 384], for which the IC50 amounted to 16700 nM. On to `CCOC(=O)c1cc(Br)cnc1N1CCC(NC2CCCCC2)C(CO)C1` (stereo not shown) [compound 69], for which the concentration for half-maximal inhibition (IC50) is 53 nM. The result for `CO[C@H]1CN(c2nc3ccc(C)cc3cc2C(C)=O)CC[C@H]1NC1CCCCC1` [compound 483] reads 315 nM; that for `COC(=O)c1cc(Br)cnc1N1CCC(NC2CCCCC2C)C(CO)C1` (stereo not shown) [compound 80], 87 nM; that for `CO[C@H]1CN(c2ncc(C)cc2C(=O)OC(C)C)CC[C@H]1NC1CCCCC1` [compound 356], 12.5 nM.

The values above are taken from US20250346584A1, “NOVEL KAPPA OPIOID LIGANDS” (The Scripps Research Institute, priority 2012, published 2025).
